Test results published in patent US8524717B2, “Oxidase inhibitors and their use” (Oryzon Genomics, S.A., priority 2008, dated 2013).

Assays:
[1] = biological target: MAO-A (Homo sapiens (Human), UniProt P21397); test: Monoamine oxidase assay (kynuramine to 4-hydroxyquinoline fluorescence), MAO-A; format: biochemical; conditions: for Ki: Table 1
Procedure: (§1) Human recombinant monoamine oxidase proteins MAO-A and MAO-B were purchased from Sigma Aldrich. MOAs catalyze the oxidative deamination of 1°, 2° and 3° amines. In order to monitor MAO enzymatic activities and/or their inhibition rate by inhibitor(s) of interest, a fluorescent-based (inhibitor)-screening assay was set up. 3-(2-Aminophenyl)-3-oxopropamamine (kynuramine dihydrobromide, Sigma Aldrich), a non fluorescent compound was chosen as a substrate. Kynuramine is a non-specific substrate for both MAOs activities. While undergoing oxidative deamination by MAO activities, kynuramine is converted into 4-hydroxyquinoline (4-HQ), a resulting fluorescent product.
(§2) The monoamine oxidase activity was estimated by measuring the conversion of kynuramine into 4-hydroxyquinoline. Assays were conducted in 96-well black plates with clear bottom (Corning) in a final volume of 100 μL. The assay buffer was 100 mM HEPES, pH 7.5. Each experiment was performed in triplicate within the same experiment.
(§3) The oxidative deamination of the substrate was stopped by adding 50 μL (v/v) of NaOH 2N.
(§4) The Ki of each inhibitor was measure at Vmax/2.

[2] = biological target: Human recombinant LSD1 protein (Homo sapiens (Human), UniProt O60341); test: LSD1 demethylase inhibition assay (Amplex Red peroxide/peroxidase-coupled, di-methylated H3-K4 peptide); conditions: for LSD1 percent at fixed concentration: at 20 μM; for ability to inhibit LSD1: preliminary assays, result in words
Procedure: The demethylase activity was estimated, under aerobic conditions, by measuring the release of H2O2 produced during the catalytic process, using the Amplex® Red peroxide/peroxidase-coupled assay kit (Invitrogen).
Tranylcypromine (Biomol International) was used as a control for inhibition. Within the experiment, each concentration of inhibitor was tested in triplicate. […] The enzymatic reactions were set up in a 50 mM sodium phosphate, pH 7.4 buffer. […] A 1 μM H2O2 solution was used as a control of the kit efficiency. The conversion of the Amplex® Red reagent to resorufin due to the presence of H2O2 in the assay, was monitored by fluorescence (excitation at 540 nm, emission at 590 nm) using a microplate reader (Infinite 200, Tecan). Arbitrary units were used to measure level of H2O2 produced in the absence and/or in the presence of inhibitor.
The Ki of each inhibitor was estimated at half of the maximum activity.

[3] = biological target: MAO-B (Homo sapiens (Human), UniProt P27338); test: Monoamine oxidase assay (kynuramine to 4-hydroxyquinoline fluorescence), MAO-B; format: biochemical; conditions: Table 1
Sequence of MAO-B (P27338 whole entry): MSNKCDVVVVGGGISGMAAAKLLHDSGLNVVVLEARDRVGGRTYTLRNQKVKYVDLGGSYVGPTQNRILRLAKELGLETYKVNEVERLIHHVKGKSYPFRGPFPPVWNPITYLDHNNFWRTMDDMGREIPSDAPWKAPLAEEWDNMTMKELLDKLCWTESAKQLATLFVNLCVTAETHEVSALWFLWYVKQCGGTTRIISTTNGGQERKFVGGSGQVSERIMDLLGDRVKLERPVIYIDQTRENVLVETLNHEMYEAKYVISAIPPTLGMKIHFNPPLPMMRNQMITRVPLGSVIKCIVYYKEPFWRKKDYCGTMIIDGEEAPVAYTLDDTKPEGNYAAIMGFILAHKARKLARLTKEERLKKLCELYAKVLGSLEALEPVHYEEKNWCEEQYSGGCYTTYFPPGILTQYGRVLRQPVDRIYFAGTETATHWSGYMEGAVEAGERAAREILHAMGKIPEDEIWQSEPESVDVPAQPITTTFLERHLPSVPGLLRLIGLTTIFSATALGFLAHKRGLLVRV
Procedure: as §1, §2, §3, §4

Sequence of MAO-A (P21397 whole entry): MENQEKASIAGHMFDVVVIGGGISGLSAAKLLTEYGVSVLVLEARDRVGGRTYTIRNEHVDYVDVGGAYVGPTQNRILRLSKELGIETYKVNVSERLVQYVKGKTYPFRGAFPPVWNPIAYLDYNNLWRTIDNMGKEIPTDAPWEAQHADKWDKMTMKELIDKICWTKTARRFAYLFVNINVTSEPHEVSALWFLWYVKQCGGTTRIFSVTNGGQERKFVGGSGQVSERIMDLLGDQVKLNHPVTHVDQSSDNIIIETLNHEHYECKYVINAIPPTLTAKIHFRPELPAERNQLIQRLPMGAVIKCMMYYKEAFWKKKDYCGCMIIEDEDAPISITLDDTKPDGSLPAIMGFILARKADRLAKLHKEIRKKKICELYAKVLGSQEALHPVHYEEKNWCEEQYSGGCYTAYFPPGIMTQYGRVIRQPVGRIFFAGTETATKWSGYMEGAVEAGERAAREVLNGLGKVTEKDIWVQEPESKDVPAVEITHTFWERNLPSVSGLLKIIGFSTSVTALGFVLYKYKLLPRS

| IC50 value for MAO-A [1] | Ki [1] [µM] | LSD1 percent at fixed concentration [2] [% at 20] | Ki [3] [µM] | Ki [2] [µM] | ability to inhibit LSD1 [2] | Structure (SMILES) |
| --- | --- | --- | --- | --- | --- | --- |
| low micromolar range | 11 |  |  |  |  | CN1CCN(C(=O)CN[C@H]2C[C@@H]2c2ccc(OCc3ccccc3)cc2)CC1 (relative stereo) [Example 26, 2-((trans)-2-(4-(benzyloxy)phenyl)cyclopropylamino)-1-(4-methylpiperazin-1-yl)ethanone] |
|  | 74 | 34 | > 100 |  |  | CN(CC(=O)NC1CC1)[C@H]1C[C@@H]1c1ccccc1 (relative stereo) [Example 19, N-cyclopropyl-2-{methyl[(trans)-2-phenylcyclopropyl]amino}acetamide] |
|  |  |  |  | > 100 | did not inhibit LSD1 | CC(C)(C)NC(=O)CN(Cc1ccccc1)[C@H]1C[C@@H]1c1ccccc1 (relative stereo) [Example 21, 2-(benzyl((trans)-2-phenylcyclopropyl)amino)-N-tert-butylacetamide] |
|  | > 100 | 40 | > 100 |  |  | CN(CC(N)=O)[C@H]1C[C@@H]1c1ccccc1 (relative stereo) [Example 20, 2-{methyl[(trans)-2-phenylcyclopropyl]amino}acetamide] |
|  | > 40 |  | > 40 |  |  | CN(C)CCNC(=O)CN[C@H]1C[C@@H]1c1ccccc1 (relative stereo) [Example 13, N-(2-(dimethylamino)ethyl)-2-((trans)-2-phenylcyclopropylamino)acetamide] |
|  | > 50 |  | > 50 | > 50 | did not inhibit LSD1 | O=C(CN[C@H]1C[C@@H]1c1ccccc1)Nc1ccc(F)cc1 (relative stereo) [Example 8, N-(4-fluorophenyl)-2-{[(trans)-2-phenylcyclopropyl]amino}acetamide] |
